Measured values published in patent US11471395B2, “Method for preventing aging with bioactive compound” (TCI CO., LTD., priority 2020, dated 2022).

Experiments:
Type in all cases: cell-based
Atg8 gene = assay: Anti-aging gene expression test in human fibroblasts (qPCR), Atg8 gene; details: 25 μg synthesized peptide per 1 ml medium, human fibroblasts (CCD-966SK), 24 h, 37° C.
Description: (§1) In order to confirm the effect of each of the amino acid sequences on gene expression in cells, human fibroblasts (CCD-966SK) and individual synthesized peptides were co-cultured, and then, gene expression in the cells was analyzed. 6 types of synthesized peptides were respectively subjected to cell experiments. In addition, the amino acid sequences of 6 types of synthesized peptides were respectively SEQ ID NO: 1, SEQ ID NO: 2, SEQ ID NO: 3, SEQ ID NO: 4, SEQ ID NO: 5 and SEQ ID NO: 6. The sequence numbers SEQ ID NO: 1 to SEQ ID NO: 6 will be referred to as groups. […]
(§2) For peptide experiment groups (corresponding to Experiment group A to Experiment group F), according to a proportion of 25 μg of synthesized peptide per 1 ml of cell culture medium, the human fibroblasts were cultured for 24 h at 37° C. […] In addition, the primers firstly reacted by a green fluorescent dye of SYBR green dye (Applied Biosystem), and quantification of gene expression was performed by a 2-ΔΔCt method. It should be noted that the gene expression in the drawings was shown in relative fold, ratio or percentage, where standard deviations were calculated by an STDEV formula of Excel software, and statistically significant differences were analyzed by one-tailed student t-test in the Excel software. […]

CCT2 gene = assay: Anti-aging gene expression test in human fibroblasts (qPCR), CCT2 gene; details: 25 μg synthesized peptide per 1 ml medium, human fibroblasts (CCD-966SK), 24 h, 37° C.
Description: as §1, §2

CCT5 gene = assay: Anti-aging gene expression test in human fibroblasts (qPCR), CCT5 gene; details: 25 μg synthesized peptide per 1 ml medium, human fibroblasts (CCD-966SK), 24 h, 37° C.
Description: as §1, §2

CCT6A gene = assay: Anti-aging gene expression test in human fibroblasts (qPCR), CCT6A gene; details: 25 μg synthesized peptide per 1 ml medium, human fibroblasts (CCD-966SK), 24 h, 37° C.
Description: as §1, §2

CCT7 gene = assay: Anti-aging gene expression test in human fibroblasts (qPCR), CCT7 gene; details: 25 μg synthesized peptide per 1 ml medium, human fibroblasts (CCD-966SK), 24 h, 37° C.
Description: as §1, §2

CCT8 gene = assay: Anti-aging gene expression test in human fibroblasts (qPCR), CCT8 gene; details: 25 μg synthesized peptide per 1 ml medium, human fibroblasts (CCD-966SK), 24 h, 37° C.
Description: as §1, §2

Pink1 gene = assay: Anti-aging gene expression test in human fibroblasts (qPCR), Pink1 gene; details: 25 μg synthesized peptide per 1 ml medium, human fibroblasts (CCD-966SK), 24 h, 37° C.
Description: as §1, §2

SIRT1 gene = assay: Anti-aging gene expression test in human fibroblasts (qPCR), SIRT1 gene; details: 25 μg synthesized peptide per 1 ml medium, human fibroblasts (CCD-966SK), 24 h, 37° C.
Description: as §1, §2

Ubl-5 gene = assay: Anti-aging gene expression test in human fibroblasts (qPCR), Ubl-5 gene; details: 25 μg synthesized peptide per 1 ml medium, human fibroblasts (CCD-966SK), 24 h, 37° C.
Description: as §1, §2

[1] = test system: mitochondria activities of human fibroblasts (CCD-966SK); assay: Mitochondria activity test (JC-1 membrane potential, flow cytometry); details: 24 h, 37° C.
Description: Then, in order to confirm the effect of each of the amino acid sequences on mitochondria activities, human fibroblasts (CCD-966SK) and the individual peptides were co-cultured, and then, the mitochondrion activities was analyzed. 6 types of synthesized peptides were respectively subjected to mitochondria activity tests. In addition, the amino acid sequences of 6 types of synthesized peptides were respectively SEQ ID NO: 1, SEQ ID NO: 2, SEQ ID NO: 3, SEQ ID NO: 4, SEQ ID NO: 5 and SEQ ID NO: 6. The sequence numbers SEQ ID NO: 1 to SEQ ID NO: 6 will be referred to as groups.
For mitochondria activity tests, after human fibroblasts and samples to be tested (such as peptides or compositions) were co-cultured, then, co-cultured cells were treated by a mitochondria membrane potential detection kit (containing a JC-1 mitochondria coloring agent, purchased from BD). Mitochondria activity test groups were divided into 7 groups.
Firstly, each of the groups (Experiment group H to Experiment group M, and Control group) was co-cultured with 1×10^5 human fibroblasts in a cell culture plate containing 2 ml of cell culture medium (X-VIVO™ 10). Then, the samples to be tested for each of the group were added into corresponding culture plates according to Table 6, and were co-cultured with the human fibroblasts at 37° C. for 24 h. Control group was co-cultured for 24 h by a peptide-free culture medium under the same conditions.
Before the mitochondria activity test was performed, a JC-1 mitochondria coloring agent was prepared. Firstly, a 10× JC-1 buffer solution was preheated at 37° C., was then diluted into a 1× JC-1 buffer solution by a 1× phosphate buffer solution (PBS, purchased from Gibco), and was maintained at 37° C. after being uniformly mixed. 130 μl of dimethyl sulfoxide (DMSO) was added into a lyophilized JC-1 reagent to prepare a JC-1 stock solution. Then, the JC-1 stock solution was diluted 1000 folds by the 1× JC-1 buffer solution to prepare a JC-1 work solution.
After co-culture for 24 h, the cell culture medium in the culture plate was removed. The co-cultured cells were rinsed twice by PBS so as to remove the residual cell culture medium. The cells were trypsinized from the culture plate, and were collected into a 1.5 ml microcentrifuge tube to be centrifuged for 5 min at 400×g so as to form a primary supernatant and a primary cell precipitate. After the primary supernatant was removed, the primary cell precipitate was resuspended by PBS to form a primary cell solution. The primary cell solution was transferred into a 1.5 ml centrifuge tube to be centrifuged for 5 min at 400×g again so as to separate the primary cell solution into a secondary supernatant and a secondary cell precipitate. Then, after the secondary supernatant was removed, 100 μl of JC-1 work solution was added to the secondary cell precipitate and vortexed to form a secondary cell solution. The secondary cell solution was cultured in dark at a room temperature for 15 min.
After cultured dark, the secondary cell solution was centrifuged for 5 min at 400×g. […] Standard deviations of the results were calculated by an STDEV formula of Excel software, and statistically significant differences were analyzed by one-tailed student t-test in the Excel software. […]

Sequence | fold of upregulation of Atg8 gene expression vs Control group (Atg8 gene) [folds] | fold of upregulation of CCT2 gene expression vs Control group (CCT2 gene) [folds] | fold of upregulation of CCT5 gene expression vs Control group (CCT5 gene) [folds] | fold of upregulation of CCT6A gene expression vs Control group (CCT6A gene) [folds] | fold of upregulation of CCT7 gene expression vs Control group (CCT7 gene) [folds] | fold of upregulation of CCT8 gene expression vs Control group (CCT8 gene) [folds] | fold of upregulation of Pink1 gene expression vs Control group (Pink1 gene) [folds] | fold of upregulation of SIRT1 gene expression vs Control group (SIRT1 gene) [folds] | fold of upregulation of Ubl-5 gene expression vs Control group (Ubl-5 gene) [folds] | improvement of mitochondria activities as compared with Control group ([1]; 10 μg peptide in 2 ml medium) [%] | improvement of mitochondria activities as compared with Control group ([1]; 25 μg peptide in 2 ml medium) [%]
DKPLIPEGP (listed as Pangasius bocourti) [SEQ ID NO: 5, synthesized peptide of Basa skin; Titin, tandem duplicate 2] | 5.13 | 5.86 | 6.03 | 5.47 | 7.92 | 6.88 | 5.85 | 6.62 | 5.24 | 26.7 | 
GPLGPIGPPGLP (listed as Pangasius bocourti) [SEQ ID NO: 6, synthesized peptide of Basa skin; Procollagen, type V, alpha I] | 4.28 | 5.71 | 6.76 | 5.28 | 7.89 | 6.43 | 6.42 | 6.52 | 5.16 |  | 68.9
NPGPHGQPGPPGP (listed as Pangasius bocourti) [SEQ ID NO: 4, synthesized peptide of Basa skin; Persistent plexus] |  |  |  |  |  |  |  |  |  | 32.9 | 
PGAPGSSGPKG (listed as Pangasius bocourti) [SEQ ID NO: 2, synthesized peptide of Basa skin; collagen, type XIV] |  |  |  |  |  |  |  |  |  | 32.7 | 
VAEGAQGNIGPA (listed as Pangasius bocourti) [SEQ ID NO: 3, synthesized peptide of Basa skin; Kinesin family member 21B] |  |  |  |  |  |  |  |  |  | 25.6 | 
